Where two headings read alike, the source gives them in different places.
Key:
[1] = tested on: RKO; assay: growth inhibition assay, NF1 mutant cell line; assay type: cell-based; conditions: Homo sapiens, colon
Description: (§1) In order to investigate the growth inhibitory effect of Compound (1) in NF1 mutant cancer cell lines, the IC50 values of growth inhibition assay were obtained and compared then in Table 2.
(§2) In this experiment, to compare the growth inhibitory effect of Compound (1) with those of MAPK and PI3K signaling inhibitors, the IC50 values of trametinib (as a MEK inhibitor), and Alpelisib (as a PI3K inhibitor) were obtained and compared.

[2] = tested on: HCT116; assay: growth inhibition assay, NF1 mutant cell line; assay type: cell-based; conditions: Homo sapiens, HCT-116; HCT116, colon, NF1 p.P678Rfs*10, p.P388T
Description: as §1, §2

[3] = tested on: MDA-MB-231; assay: growth inhibition assay, NF1 mutant cell line; assay type: cell-based; conditions: Homo sapiens; MDA-MB-231, TN breast, NF1 p.T467Hfs*3
Description: as §1, §2

[4] = tested on: H1838; assay: growth inhibition assay, NF1 mutant cell line; assay type: cell-based; conditions: Homo sapiens, NCI-H1838; H1838, lung, NF1 p.N184Qfs*17
Description: as §1, §2

[5] = tested on: MDA-MB-175VII; assay: growth inhibition assay, NF1 mutant cell line; assay type: cell-based; conditions: Homo sapiens, ER+ breast, NF1 p.1679Dfs*21
Description: as §1, §2

[6] = tested on: BT483; assay: growth inhibition assay, NF1 mutant cell line; assay type: cell-based; conditions: Homo sapiens, BT-483; BT483, ER+ breast, NF1 p.R1204W
Description: as §1, §2

[7] = tested on: MeWo; assay: growth inhibition assay, NF1 mutant cell line; assay type: cell-based; conditions: Homo sapiens, melanoma, NF1 p.Q1336*
Description: as §1, §2

[8] = tested on: HCC202; assay: growth inhibition assay, NF1 mutant cell line; assay type: cell-based; conditions: HCC202, HER2+ breast, NF1 p.X465_splice
Description: as §1, §2

[9] = tested on: ER+/HER2− breast cancer cell lines; assay: immunoblotting, combination with fulvestrant, presence and absence of estrogen and NF1; assay type: cell-based; conditions: single agent; presence or absence of estrogen; NF1 wildtype and NF1 knockdown cells
Procedure: The actual standard of care for ER+/HER2− breast cancer uses the adjuvant therapies such as tamoxifen, letrozole, or fulvestrant. Patients with recurrent or refractory tumors are treated with additional use of CDK4/6 inhibitors or Alpelisib for PIK3CA-mutated cancers.

[10] = tested on: AsPC-1; assay: 3-day growth inhibition assay; assay type: cell-based; conditions: Homo sapiens, ASPC1; AsPC-1 (Pancreas), KRAS p.G12D; read-out: Growth inhibition (IC50: nmol/L)
Procedure: The IC50 values for each compound in cell lines used in a series of animal experiments evaluating the antitumor effects of Compound (1) on KRAS mutant tumor xenografts were determined by a 3-day growth inhibition assay (Table 7).

[11] = tested on: MCF7 cells (control and NF1 knockdown); assay: immunoblotting of target inhibition and apoptosis induction; assay type: cell-based, human
Procedure: To investigate the mechanism of action of Compound (1) in inhibiting the growth of NF1 knockdown breast cancer cells, Compound (1), trametinib, Alpelisib, and fulvestrant were exposed to NF1-knockdown MCF7 and T47D cells at indicated final concentration for 24 hours. NF1, pPRAS40 Thr246, pYB1 Ser102, pS6RP Ser235/236, ERα, and cleaved PARP were detected by immunoblotting.

[12] = tested on: cancer cell lines derived from various human cancer origins; assay: cell growth inhibition assay, cell panel, CellTiter Glo 2.0; assay type: cell-based; conditions: 72 hour, FIG. 4A
Procedure: Cell growth inhibition assay was conducted according to 72 hour-standard protocol by CellTiter Glo 2.0 Assay.

[13] = tested on: SW1573 human lung tumor xenografts; conditions: for T/C ratio (%): Day 15; for Number of deaths / Tumor volume (mm^3) Day 15 Mean ± SE: qd Day 1-14, po
[14] = tested on: LS180 human colorectal tumor xenografts; assay: antitumor effect in mice with LS180 xenograft tumors; assay type: in vivo; conditions: 80 mg/kg/day
Procedure: The oncogenic KRAS mutations are diverse, including not only G12C but also G12X and G13X in the mutation hotspot Glycine at […]. To determine whether Compound (1), which targets downstream of MAPK and PI3K signaling, is effective against G12D mutated cancers, an efficacy experiment of Compound (1) was conducted using subcutaneously transplanted LS180 tumor derived from colorectal cancers with KRAS G12D and PIK3CA and PTEN gene alterations.
Evaluation was conducted by comparing the efficacy of 80 mg/kg/day of Compound (1) with that of 1 mg/kg/day MEK inhibitor trametinib used as a reference group.

[15] = tested on: PTEN-mutated MFE-319 cells; assay: dose-dependent apoptosis induction; assay type: cell-based, human; conditions: MFE-319, 48 hour, compared to control
[16] = tested on: T47D; assay: growth inhibition, 3 days; assay type: cell-based; conditions: Homo sapiens, NF1 WT
Procedure: (§3) MCF7 cells cultured in phenol red-free RPMI1640 medium containing 10% charcoal stripped FBS were transfected with NF1 siRNA to a final concentration of […] using Lipofectamine RNAiMAX. The cells were then incubated for 1 day at 37° C., 5% CO2. After that, E2 (estrogen) was added to the medium at 1 nmol/L final concentration, and the cells were cultured for 3 days, after which the cells were collected and cell extracts were prepared.
(§4) To investigate the growth inhibition effect of Compound (1) on the NF1-depleted ER+/HER2− breast cancer cells, MCF7 and T47D, the serially diluted Compound (1) was exposed to the cells for 3 days as in the previous experiment.
(§5) The growth inhibition curve in MCF7 and T47D cells were obtained and the half maximal inhibitory concentration (IC50) value of growth inhibition were calculated as shown in Table 1.

[17] = tested on: T47D_NF1KD; assay: growth inhibition, 3 days; assay type: cell-based
Procedure: as §3, §4, §5

[18] = tested on: MCF7_NF1KD; assay: growth inhibition, 3 days; assay type: cell-based; conditions: Homo sapiens
Procedure: as §3, §4, §5

[19] = tested on: MCF7; assay: growth inhibition, 3 days; assay type: cell-based; conditions: Homo sapiens, MCF7, NF1 WT
Procedure: as §3, §4, §5

[20] = with estrogen, read-out: IC50 (nmol/L) E2 (+)
[21] = without estrogen, read-out: IC50 (nmol/L) E2 (−)

CC(C)(C)NCCNc1ccc(-c2nnc(C(F)(F)F)o2)nc1C1CCN(c2ncnc3c2C(C)(C)C(=O)N3)CC1 [Compound (1), 4-(4-(3-((2-(tert-butylamino)ethyl)amino)-6-(5-(trifluoromethyl)-1,3,4-oxadiazol-2-yl)pyridin-2-yl)piperidin-1-yl)-5,5-dimethyl-5H-pyrolo[2,3-d]pyrimidin-6(7H)-one]
IC50 [1]: 118 nM | IC50 [2]: 355 nM | IC50 [3]: 2810 nM | IC50 [4]: 344 nM | IC50 [5]: 70 nM | IC50 [6]: 128 nM | IC50 [7]: 844 nM | IC50 [8]: 157 nM | apoptosis induction [9]: observed | IC50 [10]: 184 nmol/L | signals of pPRAS40, pYB1, and pS6RP (target inhibition) ([11]; MCF7, control and NF1 knockdown, 24 hours, immunoblot): decreased the signals of pPRAS40, pYB1, and pS6RP in a concentration-dependent manner | apoptosis induction (cleaved PARP signal) ([11]; MCF7 NF1 knockdown cells versus control cells): did not exhibit the attenuation of apoptosis induction | apoptosis induction (cleaved PARP signal) ([11]; MCF7 control cells (non-targeting siRNA), single agent): induced apoptosis | growth inhibition in cancer cell panel [12]: potent growth inhibition | T/C ratio (%) ([13]; 30 mg/kg/day): 55% | Number of deaths ([13]; 30 mg/kg/day): 0 | Tumor volume (mm^3) Day 15 Mean ± SE ([13]; 30 mg/kg/day): 438.6 ± 81.1 mm^3 | T/C ratio (%) ([13]; 60 mg/kg/day): 38% | Number of deaths ([13]; 60 mg/kg/day): 0 | Tumor volume (mm^3) Day 15 Mean ± SE ([13]; 60 mg/kg/day): 305.6 ± 33.0 mm^3 | Number of deaths [14]: 0 | T/C ratio (%) ([14]; Day 15): 59% | Tumor volume (mm^3) Day 15 Mean ± SE ([14]; qd Day 1-14, po): 867.8 ± 210.6 mm^3 | levels of cleaved caspase-3 and cleaved PARP [15]: increased cleaved caspase-3 and cleaved PARP in a concentration dependent manner | IC50 [16, 20]: 65 nmol/L | IC50 [16, 21]: 125 nmol/L | IC50 [17, 20]: 37 nmol/L | IC50 [17, 21]: 111 nmol/L | IC50 [18, 20]: 188 nmol/L | IC50 [18, 21]: 294 nmol/L | IC50 [19, 20]: 108 nmol/L | IC50 [19, 21]: 89 nmol/L
